We go through 20 compounds from ChEMBL document CHEMBL6127101, “Wee1 inhibitor optimization through deep-learning-driven decision making” (Eur J Med Chem, 2024).

One test deals with NCI-H446. Nature of the test: Inhibition of cell viability of human NCI-H446 cells incubated for 72 hrs by Cell Titer-Glo assay. To be noted: NCI-H446, 72 h. (ATP-based viability assays read luminescence as a measure of living cells.)
A further test addresses Wee1-like protein kinase (Homo sapiens, UniProt P30291). Put plainly: Inhibition of Wee-1 (unknown origin) using Poly-Lys Tyr as substrate incubated for 60 mins in presence of ATP by ADP-Glo Kinase assay.
For another test, the system named is A-427. Nature of the test: Inhibition of cell viability of human A-427 cells incubated for 72 hrs by Cell Titer-Glo assay. Format: functional, cell-based. Conditions: A-427, 72 h.
For test [1], the system named is C-33-A. Put plainly: Inhibition of cell viability of human C-33-A cells incubated for 72 hrs by Cell Titer-Glo assay. In kind it is functional, cell-based.
For another test, the system named is OVCAR-3. Put plainly: Inhibition of cell viability of human OVCAR-3 cells incubated for 72 hrs by Cell Titer-Glo assay. In kind it is functional, cell-based. To be noted: OVCAR-3, 72 h.
For a further test, the system named is WiDr. Nature of the test: Inhibition of cell viability of human WiDr cells incubated for 72 hrs by Cell Titer-Glo assay. In kind it is functional, cell-based.
Test [2] deals with C-33-A. Put plainly: Inhibition of cell viability of human C-33-A cells incubated for 72 hrs by Cell Titer-Glo assay relative to control. In kind it is functional.

Chain of Wee1-like protein kinase (P30291 whole entry): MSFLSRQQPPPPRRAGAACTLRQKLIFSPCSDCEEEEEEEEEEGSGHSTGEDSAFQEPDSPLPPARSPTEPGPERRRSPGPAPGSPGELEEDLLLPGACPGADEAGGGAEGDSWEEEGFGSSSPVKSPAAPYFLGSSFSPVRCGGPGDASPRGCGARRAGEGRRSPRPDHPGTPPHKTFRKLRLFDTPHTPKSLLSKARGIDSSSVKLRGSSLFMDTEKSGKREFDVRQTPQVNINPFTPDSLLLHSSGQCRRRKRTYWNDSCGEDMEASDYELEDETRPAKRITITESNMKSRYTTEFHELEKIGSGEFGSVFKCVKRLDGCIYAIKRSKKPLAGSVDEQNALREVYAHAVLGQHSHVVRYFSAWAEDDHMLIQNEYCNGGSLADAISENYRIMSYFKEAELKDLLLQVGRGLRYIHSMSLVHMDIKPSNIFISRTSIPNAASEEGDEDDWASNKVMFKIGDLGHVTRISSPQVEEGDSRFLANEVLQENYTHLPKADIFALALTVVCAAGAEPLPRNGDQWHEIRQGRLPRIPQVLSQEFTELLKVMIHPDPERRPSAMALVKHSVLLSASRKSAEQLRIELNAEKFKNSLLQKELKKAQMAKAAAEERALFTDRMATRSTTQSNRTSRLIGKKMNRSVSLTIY

A word on the IC50: it is the concentration at which inhibition is half-maximal. For the compound `CC1(N)CCN(c2ccc(Nc3ncc(-c4cnco4)c(-c4cc(N5CC[C@H](N)C5)ns4)n3)cc2)CC1`, the half-maximal inhibitory concentration (IC50) was above 10000 nM in the test with NCI-H446 and 47.1 nM at Wee1-like protein kinase.

Take `CN1CCN(c2ccc(Nc3ncc(-c4cncs4)c(-c4cc5ccccc5o4)n3)cc2)CC1`: the IC50 with A-427 is 463 nM; in the test with C-33-A [1], 458 nM; in the test on NCI-H446, 1160 nM; at Wee1-like protein kinase it was 2.3 nM; in the test on OVCAR-3, 736 nM; with WiDr it was 855 nM.

For the compound `CC1(N)CCN(c2ccc(Nc3ncc(-c4cnco4)c(-c4cc5ccc(CO)cc5o4)n3)cc2)CC1`, the IC50 on Wee1-like protein kinase came to 13.5 nM.

Take `COc1cc(Nc2ncc(-c3cnco3)c(-c3cnc(N4CC[C@H](O)C4)s3)n2)ccc1N1CCN(C)CC1`: the half-inhibitory concentration (IC50) with A-427 came out at 589 nM; with C-33-A [1], 410 nM; with NCI-H446, 1410 nM; on Wee1-like protein kinase, 22.4 nM; in the test on OVCAR-3 it was 1840 nM; in the test on WiDr, 1470 nM.

Consider `COc1cc(Nc2ncc(-c3cncs3)c(-c3cnc(N4CC(O)C4)s3)n2)ccc1N1CCN(C)CC1`, for which the IC50 turned out to be 163 nM in the test on A-427; 105 nM with C-33-A [1]; 313 nM in the test with NCI-H446; 3.7 nM at Wee1-like protein kinase; 252 nM with OVCAR-3; 415 nM with WiDr.

For the compound `CN1CCN(c2ccc(Nc3ncc(-c4cncs4)c(-c4cnc(N5CC[C@H](O)C5)s4)n3)cc2)CC1`, the half-maximal inhibitory concentration (IC50) worked out at 362 nM in the test on A-427; 167 nM with C-33-A [1]; 540 nM in the test on NCI-H446; 4.2 nM on Wee1-like protein kinase; 430 nM in the test on OVCAR-3; 1110 nM in the test with WiDr.

Take `COc1cc(Nc2ncc(-c3cncs3)c(-c3cnc(N4CC[C@H](O)C4)s3)n2)ccc1N1CCN(C)CC1`: the IC50 in the test on A-427 stood at 152 nM; with C-33-A [1] it was 99.5 nM; in the test with NCI-H446, 417 nM; at Wee1-like protein kinase, 2 nM; in the test with OVCAR-3, 229 nM; with WiDr, 538 nM.

As to `CN1CCN(c2ccc(Nc3ncc(-c4cncs4)c(-c4cnc(N5CC[C@H](F)C5)s4)n3)cc2)CC1`, the IC50 with A-427 was 98.2 nM; in the test with NCI-H446, 150 nM; on Wee1-like protein kinase, 1.8 nM; in the test on OVCAR-3 it was 161 nM; with WiDr, 203 nM. In the test on C-33-A [2], the “inhibition (INH)” value was 43.6%.

`COc1cc(Nc2ncc(-c3cncs3)c(-c3cc4ccccc4o3)n2)ccc1N1CCN(C)CC1`: the IC50 in the test on NCI-H446 is 2040 nM; at Wee1-like protein kinase, 1.9 nM.

Turning to `CC1(N)CCN(c2ccc(Nc3ncc(-c4cnco4)c(-c4cc5ccccc5o4)n3)cc2)CC1`, the IC50 with A-427 amounted to 1450 nM; in the test with NCI-H446 it was 709 nM; at Wee1-like protein kinase, 13.5 nM; with OVCAR-3 it was 1500 nM.

In the case of `CC1(N)CCN(c2ccc(Nc3ncc(-c4cnco4)c(-c4cccc(C(C)(C)O)c4)n3)cc2)CC1`, on Wee1-like protein kinase, the IC50 came to 158 nM.

With `CC1(N)CCN(c2ccc(Nc3ncc(-c4cnco4)c(-c4cnc(N5CC(O)C5)s4)n3)cc2)CC1`, the IC50 on Wee1-like protein kinase came out at 33.7 nM.

On to `COc1cc(Nc2ncc(-c3cncs3)c(-c3cnc(N4CC[C@H](F)C4)s3)n2)ccc1N1CCN(C)CC1`, for which the IC50 was 34.5 nM in the test on A-427; 23.1 nM with C-33-A [1]; 93.9 nM with NCI-H446; 2 nM on Wee1-like protein kinase; 86.7 nM with OVCAR-3; 85 nM with WiDr.

For the compound `Cc1cc(-c2ccnc(-c3nc(Nc4ccc(N5CCC(C)(N)CC5)cc4)ncc3-c3cnco3)c2)n[nH]1`, the half-inhibitory concentration (IC50) at Wee1-like protein kinase was determined as 895 nM.

For `CN1CCN(c2ccc(Nc3ncc(-c4cnco4)c(-c4cnc(N5CC[C@H](F)C5)s4)n3)cc2)CC1`, the IC50 with A-427 is 211 nM; with C-33-A [1], 130 nM; with NCI-H446, 562 nM; on Wee1-like protein kinase, 3.6 nM; in the test with OVCAR-3, 414 nM; in the test with WiDr, 423 nM.

Take `CC1(N)CCN(c2ccc(Nc3ncc(-c4cnco4)c(-c4snc(N5CCC(N)C5)c4F)n3)cc2)CC1` (stereo not given): the half-maximal inhibitory concentration (IC50) on Wee1-like protein kinase was found to be 47.1 nM.

On to `CN1CCN(c2ccc(Nc3ncc(-c4cncs4)c(-c4cnc(N5CC(O)C5)s4)n3)cc2)CC1`, for which the IC50 in the test on A-427 was determined as 369 nM; in the test on C-33-A [1], 277 nM; with NCI-H446, 622 nM; at Wee1-like protein kinase, 3.6 nM; in the test with OVCAR-3, 352 nM; in the test on WiDr, 1020 nM.

Turning to `COc1cc(Nc2ncc(-c3cnco3)c(-c3cnc(N4CC[C@H](F)C4)s3)n2)ccc1N1CCN(C)CC1`, the IC50 worked out at 115 nM with A-427; 62.6 nM in the test with C-33-A [1]; 300 nM in the test on NCI-H446; 2.5 nM on Wee1-like protein kinase; 212 nM in the test with OVCAR-3; 186 nM with WiDr.

`CN1CCN(c2ccc(Nc3ncc(-c4cnco4)c(-c4cnc(N5CC[C@H](O)C5)s4)n3)cc2)CC1`: the IC50 amounted to 565 nM in the test with A-427; 527 nM in the test with C-33-A [1]; 1660 nM with NCI-H446; 20.9 nM at Wee1-like protein kinase; 2110 nM with OVCAR-3; 2170 nM in the test on WiDr.

As for `C=CCn1c(=O)c2cnc(Nc3ccc(N4CCN(C)CC4)cc3)nc2n1-c1ccc2c(n1)[C@@](O)(CC)CC2` [AZENOSERTIB], the IC50 is 371 nM in the test with A-427; 382 nM with C-33-A [1]; 250 nM in the test with NCI-H446; 1.3 nM at Wee1-like protein kinase; 245 nM with OVCAR-3; 256 nM with WiDr.
